Laboratory results as given in article PMC10987949, “Inhibition of HIV-1 release by ADAM metalloproteinase inhibitors” (Frontiers in Microbiology, 2024).

Key:
[1] = biological target: T1, recombinant HIV-1 protease (Human immunodeficiency virus type 1 group M subtype B, UniProt P04585); test: HIV-1 protease fluorogenic substrate cleavage; format: biochemical; details: 100nM saquinavir or nelfinavir; MMP inhibitors up to 10uM
T1 construct: recombinant HIV-1 protease; purchased Sigma-Aldrich SRP2151
Experimental: HIV-1 protease enzymatic activity was assayed in black 96-well plates at room temperature using a Synergy_h1 fluorescent plate reader with 340 nm excitation and 490 nm emission wavelengths (BioTek). Each enzymatic reaction consisted of a mixture of 100 ng of recombinant HIV-1 protease (Sigma-Aldrich catalog SRP2151), 5 μM concentration of a fluorogenic substrate Arg-Glu(EDANS)-[…]DABCYL)-Arg (Sigma-aldrich catalog H6660), and various concentrations of inhibitor compounds in 100 μL of assay buffer (0.15 M sodium chloride, 1.0 mM EDTA, 1.0 mM DTT, 0.1 M sodium acetate, pH 5.0). The fluorescence of the cleavage reaction was continuously read at every 30 s for a total of 40 min.

recombinant ADAM10 [2] = biological target: T2, recombinant ADAM10 (Homo sapiens, UniProt O14672); test: Kinetic cleavage of fluorogenic TNF-α peptide ES003 by recombinant ADAM10; format: biochemical; details: 2 μM compound
T2 construct: purchased R&D systems, Inc
T2 sequence (O14672 214-748): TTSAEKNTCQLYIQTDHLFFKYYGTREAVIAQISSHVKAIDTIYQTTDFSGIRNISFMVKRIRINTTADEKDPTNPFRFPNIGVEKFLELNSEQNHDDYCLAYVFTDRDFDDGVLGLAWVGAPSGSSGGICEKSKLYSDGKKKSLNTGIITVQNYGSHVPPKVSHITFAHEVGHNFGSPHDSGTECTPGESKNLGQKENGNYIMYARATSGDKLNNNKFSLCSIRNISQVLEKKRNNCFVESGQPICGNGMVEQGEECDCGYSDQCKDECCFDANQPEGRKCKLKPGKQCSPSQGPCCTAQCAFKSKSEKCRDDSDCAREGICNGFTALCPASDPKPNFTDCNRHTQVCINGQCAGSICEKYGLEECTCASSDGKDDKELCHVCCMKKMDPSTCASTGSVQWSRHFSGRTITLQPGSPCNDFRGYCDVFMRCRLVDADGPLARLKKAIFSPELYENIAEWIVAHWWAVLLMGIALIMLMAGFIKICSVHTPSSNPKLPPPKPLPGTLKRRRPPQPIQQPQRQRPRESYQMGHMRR
Text: (§1) A fluorescence based enzymatic assay was used to measure the cleavage of fluorogenic TNF-α and L-selectin (CD62L) peptides by either recombinant ADAMs or PBMC from healthy donors. The fluorogenic substrate, synthesized by Biomatik^3, was a Dabcyl (4-(4-dimethylaminophenylazo)benzoyl)- and Edans (5-[(2-aminoethyl)amino]naphthalene-1-sulfonic acid)- conjugated 12 amino acid peptide: Dabcyl-[…]-Edans that corresponds to the extracellular membrane proximal region of CD62L. […] The cleavage was measured in a kinetic assay every 3 min for 4 h in black 96-well plates using a Synergy_h1 fluorescent plate reader (BioTek) with 340 nm excitation and 490 nm emission wavelengths. […] PBMC were stimulated with anti-CD3 antibody for 2–4 days as described above.
(§2) 96-well plate with data recorded every 3 minutes for 4 hours using a Synergy_h1 fluorescent plate reader. Each enzymatic reaction contained 50 -200 ng
(§3) Figure 2B and 2C bar diagrams are generated using the
(§4) data points at 4 hour time point of the enzymatic cleavages.

HIV-1BAL = HIV-1BAL infection of CD8-depleted PBMC, FACS (intracellular p24, CD4, CD62L); format: cell-based
Text: The use of healthy human peripheral blood mononuclear cells (PBMC) is approved by the Department of Transfusion Medicine at the Clinical Center of National Institutes of Health. The use of PBMC from HIV-1 infected individuals for the study was approved under protocol #02-I-0202 by the Institutional Review Board (IRB) of National Institutes of Health with written informed consent from all donors. Peripheral blood mononuclear cells (PBMCs) from anonymous healthy donors were isolated by Ficoll-Paque gradient, and cultured in RPMI 1640 supplemented with 10% FBS, 1%Penicillin/streptomycin, 1% HEPES buffer and 20 U/mL IL-2 (culture media); and stimulated with 0.2 μg/mL anti-CD3 antibody (okt3) for 2 days. CD8^+ T cells were depleted prior to infection using the Stemcell CD8 positive selection kit according to manufacturer’s instructions. CD8-depleted PBMCs were plated at 2×10^6 cells/ml in 48-well plates in 1 mL culture media with various inhibitors for 60 min prior to the addition of ~80 TCID50 HIV-1BAL or HIV-1LAI. Inhibitors were replenished during media change every 3 days. The infections were proceeded with or without inhibitors for 6 days or otherwise specified number of days and then analyzed by FACS staining using fluorescent labeled CD4-BV510, CD62L-APC and CD3-PEC7 antibodies (BD Biosciences). Cells were then washed and permeabilized with CytoFix/CytoPerm (BD Biosciences) solution before intracellular staining for HIV p24 antigen using FITC conjugated anti-p24 antibody clone KC57 (Beckman Coulter, catalog 6604665). All assays were performed with cell viabilities >80%. Replication competent HIV-1 viruses were obtained from the NIH AIDS Reagent Program^4, and expanded by infecting activated CD8-depleted PBMCs, and TCID50 was determined by p24 ELISA.

CD62L shedding [3] = test: Soluble CD62L ELISA, anti-CD3/PHA stimulated PBMC or CD4 T cells; format: cell-based, human; details: ELISA
Experimental: PBMC from de-identified healthy donors were obtained with informed consent from the Department of Transfusion Medicine, National Institutes of Health under Biological reagent Registry RD-14-IX-12 approved by NIH biological safety board. […] IL-2 was added at a final concentration of 20 U/mL. CD3 antibody okt3 was used at ~0.2 μg/mL final concentration. […] Supernatants were collected and assessed using either the CD62L or TNF-α Duo Set ELISA kit according to manufacturer’s instructions (R&D Systems, Inc.). The viability of cells treated with compounds was assessed by acridine orange / propidiom iodide (AO/PI Logosbio catalog F23001) staining using Luna-FL cell counter following the manufacture’s instruction.^2

recombinant ADAM10 [4] = biological target: T2, recombinant ADAM10; test: Cleavage of fluorogenic CD62L peptide by recombinant ADAM10; format: biochemical; details: 2 μM compound
Text: A fluorescence based enzymatic assay was used to measure the cleavage of fluorogenic TNF-α and L-selectin (CD62L) peptides by either recombinant ADAMs or PBMC from healthy donors. The fluorogenic substrate, synthesized by Biomatik^3, was a Dabcyl (4-(4-dimethylaminophenylazo)benzoyl)- and Edans (5-[(2-aminoethyl)amino]naphthalene-1-sulfonic acid)- conjugated 12 amino acid peptide: Dabcyl-[…]-Edans that corresponds to the extracellular membrane proximal region of CD62L. The fluorescence of the Edans group is quenched by the Dabcyl group in the intact substrate and the cleavage of the CD62L substrate peptide results in a fluorescence emission at 490 nm. The cleavage of fluorogenic TNF-α peptide (ES003, R &D systems, Inc) was detected at emission of 405 nm. The cleavage was measured in a kinetic assay every 3 min for 4 h in black 96-well plates using a Synergy_h1 fluorescent plate reader (BioTek) with 340 nm excitation and 490 nm emission wavelengths. For cleavage using recombinant ADAMs, each enzymatic reaction contained 50–200 ng of recombinant ADAM17 or 10 (R&D systems, Inc) mixed with 5–10 μM fluorogenic TNFα peptide ES003 (R&D systems, Inc) or CD62L peptide with or without indicated inhibitors in 100 μL assay buffer of 25 mM Tris at pH 9.0, 2.5 μM ZnCl2, and 0.005% Brij-35 (w/v). For cell-based cleavage of the fluorescent CD62L-peptide substrate, 300,000 PBMC at 2×10^6/ml density were mixed with 10 μM fluorescent CD62L-peptide and various inhibitors in a black 96-well plate in 150 μL culture media (RPMI 1640, 10% FBS, 1% penicillin streptomycin). PBMC were stimulated with anti-CD3 antibody for 2–4 days as described above.
Supplemental Figure 3. Inhibition of ADAM10 enzymatic activity by 14mb. A) chemical structure of 3-Cl-phenylpyrrolidine tartrate diamide analogs 14m and 15. B)Inhibition of recombinant ADAM10 cleavage of a fluorogenic CD62L peptide substrate in the presence of titrating concentrations of 14mb. The concentration-dependent enzymatic activities are fitted with non-linear regression of normalized inhibition response model. C). Inhibition of ADAM10 enzymatic cleavage of fluorogenic CD62L peptide by various […]

recombinant ADAM17 = biological target: T3, recombinant ADAM17 (Homo sapiens, UniProt P78536); test: Kinetic cleavage of fluorogenic TNF-α peptide ES003 by recombinant ADAM17; format: biochemical; details: 2 μM compound
T3 construct: purchased R&D systems, Inc
T3 sequence (P78536 215-824): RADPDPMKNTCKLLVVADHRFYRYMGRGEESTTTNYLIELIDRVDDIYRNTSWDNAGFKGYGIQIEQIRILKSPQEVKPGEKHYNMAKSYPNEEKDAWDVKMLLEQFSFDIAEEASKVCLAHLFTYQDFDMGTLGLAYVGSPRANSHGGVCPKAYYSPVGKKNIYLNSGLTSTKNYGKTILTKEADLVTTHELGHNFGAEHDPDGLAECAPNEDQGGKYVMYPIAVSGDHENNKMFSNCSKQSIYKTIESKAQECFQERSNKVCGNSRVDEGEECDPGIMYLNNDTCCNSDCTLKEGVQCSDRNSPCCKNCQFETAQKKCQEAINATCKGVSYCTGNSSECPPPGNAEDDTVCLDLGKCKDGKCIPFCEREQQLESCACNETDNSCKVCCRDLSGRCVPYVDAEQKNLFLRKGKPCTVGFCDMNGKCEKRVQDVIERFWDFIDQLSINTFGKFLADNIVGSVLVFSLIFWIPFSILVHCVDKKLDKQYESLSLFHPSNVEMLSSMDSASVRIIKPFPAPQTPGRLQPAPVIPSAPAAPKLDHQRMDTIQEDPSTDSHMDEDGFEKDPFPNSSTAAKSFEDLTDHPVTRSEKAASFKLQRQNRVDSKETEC
Text: as §1, §2, §3, §4

CD62L shedding [5] = test: Soluble CD62L ELISA, unstimulated PBMC; format: cell-based, human; details: Homo sapiens, PBMC; 10 μM compound; non-stimulated cells; ELISA; read-out: Shedding inhibition Non-stim.
Experimental: PBMC from de-identified healthy donors were obtained with informed consent from the Department of Transfusion Medicine, National Institutes of Health under Biological reagent Registry RD-14-IX-12 approved by NIH biological safety board. CD8-depleted PBMCs, either stimulated or non-stimulated with 10 μg/mL phytohaemagglutinin (PHA) or anti-CD3 antibody (with or without conjugated beads), were plated at 2×10^6 cells/ml in 48 well plates in RPMI 1640 + 10%FBS (R10) to a final volume of 1 mL in each well. IL-2 was added at a final concentration of 20 U/mL. CD3 antibody okt3 was used at ~0.2 μg/mL final concentration. […] Supernatants were collected and assessed using either the CD62L or TNF-α Duo Set ELISA kit according to manufacturer's instructions (R&D Systems, Inc.). The viability of cells treated with compounds was assessed by acridine orange / propidiom iodide (AO/PI Logosbio catalog F23001) staining using Luna-FL cell counter following the manufacture's instruction.^2 […] Supplemental Figure 1. CD62L shedding from unstimulated PBMC. A) Soluble CD62L in the supernatant of unstimulated PBMC was measured By ELISA (R&D systems, Inc) after 24 hour treatment in the presence of 10 μM of […]), aminopeptidase (AP) protease inhibitors, respectively, or their untreated controls. Statistics were calculated using unpaired parametric student t-test between individual treatment and DMSO control. […] B) Viability of PBMC treated with 10-500 μM of MMP inhibitors for 24hours. […] Untreated DMSO AEBSF 3,4-Dichloroisocouman Granzyme B Inhibitor II Granzyme B Inhibitor IV Aprotinin […] 3 4 CD62L shedding from unstimulated PBMC Soluble CD62L (ng/ml) Inhibitor Class […] GI254023X 10 GI254023X 100 […] GI254023X 1000 GW280264X 10 GW280264X 100 […] GW280264X 1000 Marimastat 10 Marimastat 100 Marimastat 250 […]

HIV-1 = test: Ex vivo HIV-1 release from CD4 T cells of HIV-1 infected individuals; format: cell-based; details: 50 μM; CD4 T cells from six HIV-1 infected individuals; day 2 and 4
Experimental: PBMCs were collected from the study subjects in accordance with a clinical protocol approved by the Institutional Review Board of the National Institute of Allergy and Infectious Diseases, National Institutes of Health under protocol #02-I-0202. CD4^+ T cells were isolated from the PBMCs using a human CD4 T cell separation system (StemCell Technologies, Catalog 19052) and were cultured with medium alone or with plate-bound anti-CD3 and soluble anti-CD28 antibody in the absence or presence of 50 μM of indicated compounds for 48 h. The copy number of cell-free viron-associated HIV RNA in the culture supernatants was quantified using the Cobas Ampliprep/Cobas Taqman HIV-1 Test, Version 2.0 (Roche Diagnostics) with droplet digital PCR (ddPCR, BIO-RAD) on day 2 and 4 of stimulation.

Row | SMILES | effect on HIV protease cleavage of fluorogenic substrate [1] | inhibition of ADAM10 cleavage of ES003 (recombinant ADAM10 [2]) | accumulation of infected CD4−/CD62L− T cells (loss of CD62L) (HIV-1BAL; HIV-1BAL infected cells) | effect on HIV-1BAL infection (intracellular p24) (HIV-1BAL; day 7 post infection, compounds at 100 μM, GI254023X at 250 μM) | Shedding inhibition Stimulated (CD62L shedding [3]; 10 μM compound, stimulated cells) | inhibition of ADAM10 cleavage of CD62L substrate peptide (recombinant ADAM10 [4]) | inhibition of ADAM17 cleavage of ES003 (recombinant ADAM17) | inhibition at 10 µM (CD62L shedding [5]) | effect on viral release (virion-associated HIV RNA) (HIV-1) | inhibition at 10 µM (CD62L shedding [3]; Homo sapiens, 10 μM compound, stimulated cells) | effect on CD62L shedding / soluble CD62L (CD62L shedding [3]; stimulated PBMC or CD4 T cells)
1 | O=P([O-])([O-])C(Cl)(Cl)P(=O)(O)O.[Na+].[Na+] [DMDP, Dichloromethylenediphosphonic acid disodium salt] | none of the MMP inhibitors, including BB-94, prinomastat, GM6001 and DMDP, inhibited the activity of HIV protease | inhibited neither ADAM10 nor 17 enzymatic activities | failed to prevent the loss of CD62L | failed to inhibit HIV-1BAL infections | − (0% inhibition) | not | inhibited neither ADAM10 nor 17 enzymatic activities | – | – | – | –
2 | CNC(=O)[C@H](Cc1c[nH]c2ccccc12)NC(=O)[C@@H](CC(=O)NO)CC(C)C [GM6001] | none of the MMP inhibitors, including BB-94, prinomastat, GM6001 and DMDP, inhibited the activity of HIV protease | – | – | – | – | – | – | 20 to 50% | inhibited viral release in a portion of the samples | 20 to 50% | suppressed CD62L shedding
